IC50 data for 31 molecules are collected here from patent publication EP4745124A1, “NAPHTHALIMIDE-BASED CORONAVIRUS PAPAIN-LIKE PROTEASE INHIBITOR” (Guangzhou National Laboratory, priority 2023, dated 2025).

For orientation: IC50 means the concentration needed to halve the response being measured.

The first assay deals with T1, SARS-CoV-2 PL^Pro (Severe acute respiratory syndrome coronavirus 2, UniProt P0DTD1).
T1 construct: SARS-CoV-2 PL^Pro catalytic domain (746-1060); made in house
The experiment in a line: biochemical.
Conditions: not given
Turning to `Cc1ccc(N2C3CCC2CNC3)cc1C(=O)NC1(c2ccc3c4c(cccc24)C(=O)N3C)CC1` [Compound P6, 5-(3,8-diazabicyclo[3.2.1]octan-8-yl)-2-methyl-N-(1-(1-methyl-2-oxo-1,2-dihydrobenzo[cd]indol-6-yl)cyclopropyl)ben zamide], the IC50 was under 40 nM.
Same read-out and setting: as for `Cc1ccc(N2C3CCC2CN(C)C3)cc1C(=O)NC1(c2ccc3c4c(cccc24)C(=O)N3C)CC1` [Compound P8, 2-Methyl-N-(1-(1-methyl-2-oxo-1,2-dihydrobenzo[cd]indol-6-yl)cyclopropyl)-3-methyl-3,8-diazabicyclo[3.2.1]octan-8-yl benzamide], the figure is 100 to 1000 nM; as for `Cc1ccc(N2CCNC3(CC3)C2)cc1C(=O)NC1(c2ccc3c4c(cccc24)C(=O)N3C)CC1` [Compound P12, 2-Methyl-N-(1-(1-methyl-2-oxo-1,2-dihydrobenzo[cd]indol-6-yl)cyclopropyl)-5-(4,7-diazaspiro[2,5]octan-7-yl) benzamide], 40 to 100 nM.
Still for that read-out and setting: in the case of `Cc1ccc(N2CC3CC(C2)N3C)cc1C(=O)NC1(c2ccc3c4c(cccc24)C(=O)N3C(C)C)CC1` [Compound P21, N-(1-(1-isopropyl-2-oxo-1,2-dihydrobenzo[cd]indol-6-yl)cyclopropyl)-2-methyl-5-(6-methyl-3,6-diazabicyclo[3.1.1]heptan-3-yl)benzamide] it was under 40 nM.

The assay is the same for the next values; noted with them: SARS-CoV-2 PLPro catalytic domain (746-1060), 10 minutes pre-incubation; read-out: PLpro IC50.
As to `Cc1ccc(N2CCN(C)CC2)cc1C(=O)NC1(c2ccc3c4c(cccc24)C(=O)N3)CC1` [Compound P2, 2-Methyl-5-(4-methylpiperazin-1-yl)-N-(1-(2-oxo-1,2-dihydrobenzo[cd]indol-6-yl)cyclopropyl)benzamide], the IC50 was in the range of 40 to 100 nM.
As to `Cc1ccc(C2CCNCC2)cc1C(=O)NC1(c2ccc3c4c(cccc24)C(=O)N3C)CC1` [Compound P4, 2-Methyl-N-(1-(1-methyl-2-oxo-1,2-dihydrobenzo[cd]indol-6-yl)cyclopropyl)-5-(piperidin-4-yl)benzamide], the IC50 lay in the range of 40 to 100 nM.
`Cc1ccc(N2CC3CNCC3C2)cc1C(=O)NC1(c2ccc3c4c(cccc24)C(=O)N3C)CC1` (stereo not shown) [Compound P9, 5-(hexahydropyrrolo[3,4-c]pyrrol-2(1H)-yl)-2-methyl-N-(1-(1-methyl-2-oxo-1,2-dihydrobenzo[cd]indol-6-yl)cyclopropyl)benzamide]: the IC50 is under 40 nM.
For the molecule `Cc1ccc(N2CCNCC2C)cc1C(=O)NC1(c2ccc3c4c(cccc24)C(=O)N3C)CC1` (stereo not shown) [Compound P10, 2-Methyl-N-(1-(1-methyl-2-oxo-1,2-dihydrobenzo[cd]indol-6-yl)cyclopropyl)-5-(2-methylpiperazin-1-yl)benzamide], the IC50 lay within 100 to 1000 nM.
For `Cc1ccc(N2CCC(N(C)C)CC2)cc1C(=O)NC1(c2ccc3c4c(cccc24)C(=O)N3C)CC1` [Compound P13, 5-(4-(Dimethylamino)piperidin-1-yl)-2-methyl-N-(1-(1-methyl-2-oxo-1,2-dihydrobenzo[cd]indol-6-yl)cyclopropyl)ben zamide], the half-maximal inhibitory concentration (IC50) is 100 to 1000 nM.
On the same count and under the same terms, in the case of `CCN1CCN(c2ccc(C)c(C(=O)NC3(c4ccc5c6c(cccc46)C(=O)N5C)CC3)c2)C[C@@H]1C` [Compound P14, (S)-5-(4-ethyl-3-methylpiperazin-1-yl)-2-methyl-N-(1-(1-methyl-2-oxo-1,2-dihydrobenzo[cd]indol-6-yl)cyclopropyl)be nzamide] it was under 40 nM; in that of `Cc1ccc(-n2ccc(N(C)C)c2)cc1C(=O)NC1(c2ccc3c4c(cccc24)C(=O)N3C)CC1` [Compound P15, 5-(3-(dimethylamino)pyrrol-1-yl)-2-methyl-N-(1-(1-methyl-2-oxo-1,2-dihydrobenzo[cd]indol-6-yl)cyclopropyl)benzamide], under 40 nM.
Same read-out and setting: in the case of `Cc1ccc(N2CC(N3C=CC(F)(F)C3)C2)cc1C(=O)NC1(c2ccc3c4c(cccc24)C(=O)N3C)CC1` [Compound P18, 5-(3-(3,3-difluoropyrrol-1-yl)azetidin-1-yl)-2-methyl-N-(1-(1-methyl-2-oxo-1,2-dihydrobenzo[cd]indol-6-yl)cyclopropyl)benzamide] it was 100 to 1000 nM; in that of `Cc1ccc(N2C[C@H]3CN(C)C[C@H]32)cc1C(=O)NC1(c2ccc3c4c(cccc24)C(=O)N3C)CC1` [Compound P20, 2-Methyl-N-(1-(1-methyl-2-oxo-1,2-dihydrobenzo[cd]indol-6-yl)cyclopropyl)-5-((1R,5S)-3-methyl-3,6-diazabicyclo[3. 2.0]heptan-6-yl)benzamide], 100 to 1000 nM.
In the case of `Cc1ccc(C2CCN(C)CC2)cc1C(=O)NC1(c2ccc3c4c(cccc24)C(=O)N3C)CC1` [Compound P22, 2-methyl-N-(1-(1-methyl-2-oxo-1,2-dihydrobenzo[cd]indol-6-yl)cyclopropyl)-5-(1-methylpiperidin-4-yl)benzamide], the half-inhibitory concentration (IC50) lay within 40 to 100 nM.
On to `Cc1ccc(N2CC(N3CCN(C)CC3)C2)cc1C(=O)NC1(c2ccc3c4c(cccc24)C(=O)N3C)CC1` [Compound P23, 2-Methyl-N-(1-(1-methyl-2-oxo-1,2-dihydrobenzo[cd]indol-6-yl)cyclopropyl)-5-(3-(4-methylpiperazin-1-yl)azetidin-1-yl)benzamide], for which the IC50 is 100 to 1000 nM.
The same measure, in the same setting: as for `Cc1ccc(N2CC(N3CCCCC3)C2)cc1C(=O)NC1(c2ccc3c4c(cccc24)C(=O)N3C)CC1` [Compound P24, 2-Methyl-N-(1-(1-methyl-2-oxo-1,2-dihydrobenzo[cd]indol-6-yl)cyclopropyl)-5-(3-(piperidin-1-yl)azetidin-1-yl)benzamide], the figure is under 40 nM; as for `Cc1ccc(N2CCN3CCC[C@@H]3C2)cc1C(=O)NC1(c2ccc3c4c(cccc24)C(=O)N3C)CC1` [Compound P25, (R)-5-(hexahydropyrrolo[1,2-a]pyrazin-2(1H)-yl)-2-methyl-N-(1-(1-methyl-2-oxo-1,2-dihydrobenzo[cd]indol-6-yl)cyclopropyl)benzamide], under 40 nM.
On the same count and under the same terms, as for `Cc1ccc(N2CC(N3CCC(F)CC3)C2)cc1C(=O)NC1(c2ccc3c4c(cccc24)C(=O)N3C)CC1` [Compound P26, 5-(3-(4-fluoropiperidin-1-yl)azetidin-1-yl)-2-methyl-N-(1-(1-methyl-2-oxo-1,2-dihydrobenzo[cd]indol-6-yl)cyclopropyl)benzamide], the figure is under 40 nM; as for `CCN1C(=O)c2cccc3c(C4(NC(=O)c5cc(N6CCN(C)CC6)ccc5C)CC4)ccc1c23` [Compound P27, N-(1-(1-ethyl-2-oxo-1,2-dihydrobenzo[cd]indol-6-yl)cyclopropyl)-2-methyl-5-(4-methylpiperazin-1-yl)benzamide], under 40 nM; as for `CCN1C(=O)c2cccc3c(C4(NC(=O)c5cc(N6CC(N7CCC(C)(O)CC7)C6)ccc5C)CC4)ccc1c23` [Compound P28, N-(1-(1-Ethyl-2-oxo-1,2-dihydrobenzo[cd]indol-6-yl)cyclopropyl)-5-(3-(4-hydroxy-4-methylpiperidin-1-yl)azetidin-1-yl)-2-methyl-benzamide], under 40 nM.
With `Cc1ccc(N2CC(N3CCC(F)C3)C2)cc1C(=O)NC1(c2ccc3c4c(cccc24)C(=O)N3C)CC1` (stereo not shown) [Compound P30, 5-(3-(3-fluoropyrrolidin-1-yl)azetidin-1-yl)-2-methyl-N-(1-(1-methyl-2-oxo-1,2-dihydrobenzo[cd]indol-6-yl)cyclopropyl)benzamide], the IC50 was under 40 nM.
Consider `Cc1ccc(N2CC(N3CCC(F)(F)CC3)C2)cc1C(=O)NC1(c2ccc3c4c(cccc24)C(=O)N3C)CC1` [Compound P31, 5-(3-(4,4-difluoropiperidin-1-yl)azetidin-1-yl)-2-methyl-N-(1-(1-methyl-2-oxo-1,2-dihydrobenzo[cd]indol-6-yl)cyclopropyl)benzamide], for which the 50% inhibitory concentration (IC50) lay within 40 to 100 nM.
For the molecule `Cc1ccc(N2CC(N3CCC(O)CC3)C2)cc1C(=O)NC1(c2ccc3c4c(cccc24)C(=O)N3C)CC1` [Compound P32, 5-(3-(4-hydroxypiperidin-1-yl)azetidin-1-yl)-2-methyl-N-(1-(1-methyl-2-oxo-1,2-dihydrobenzo[cd]indol-6-yl)cyclopropyl)benzamide], the IC50 was under 40 nM.
`Cc1ccc(N2CC(N3CCCCC3C)C2)cc1C(=O)NC1(c2ccc3c4c(cccc24)C(=O)N3C)CC1` (stereo not shown) [Compound P34, 2-Methyl-N-(1-(1-methyl-2-oxo-1,2-dihydrobenzo[cd]indol-6-yl)cyclopropyl)-5-(3-(2-methylpiperidin-1-yl)azetidin-1-yl)benzamide]: the concentration for half-maximal inhibition (IC50) was under 40 nM.
In the case of `Cc1ccc(N2CCC(CN3CCOCC3)CC2)cc1C(=O)NC1(c2ccc3c4c(cccc24)C(=O)N3C)CC1` [Compound P38, 2-Methyl-N-(1-(1-methyl-2-oxo-1,2-dihydrobenzo[cd]indol-6-yl)cyclopropyl)-5-(4-(morpholinomethyl)piperidin-1-yl)b enzamide], the IC50 lay within 100 to 1000 nM.

The same assay, now with this note: read-out: PLpro IC50.
As for `Cc1ccc(N2CC3(CCN(C)C3)C2)cc1C(=O)NC1(c2ccc3c4c(cccc24)C(=O)N3C)CC1` [Compound P19], the IC50 fell in the range of 100 to 1000 nM.
Still for that read-out and setting: as for `CCN1C(=O)c2cccc3c(C4(NC(=O)c5cc(N6CC7CC(C6)N7)ccc5C)CC4)ccc1c23` [Compound P29], the figure is under 40 nM; as for `Cc1ccc(N2CC(N3CCOC(C)(C)C3)C2)cc1C(=O)NC1(c2ccc3c4c(cccc24)C(=O)N3C)CC1` [Compound P33, 5-(3-(2,2-dimethylmorpholinyl)azetidin-1-yl)-2-methyl-N-(1-(1-methyl-2-oxo-1,2-dihydrobenzo[cd]indol-6-yl)cyclopropyl)benzamide], 100 to 1000 nM.
On to `Cc1ccc(N2CC(N3CCS(=O)(=O)CC3)C2)cc1C(=O)NC1(c2ccc3c4c(cccc24)C(=O)N3C)CC1` [Compound P35, 5-(3-(1,1-dioxothiomorpholin)azetidin-1-yl)-2-methyl-N-(1-(1-methyl-2-oxo-1,2-dihydrobenzo[cd]indol-6-yl)cyclopropyl)benzamide], for which the IC50 is 100 to 1000 nM.
For the molecule `Cc1ccc(N2CC[C@H](N(C)C(C)C)C2)cc1C(=O)NC1(c2ccc3c4c(cccc24)C(=O)N3C)CC1` [Compound P36], the IC50 is under 40 nM.
Take `Cc1ccc(N2CCC(N3CCCC3)C2)cc1C(=O)NC1(c2ccc3c4c(cccc24)C(=O)N3C)CC1` (stereo not shown) [Compound P37, 5-([1,3'-dipyrrolidin]-1'-yl)-2-methyl-N-(1-(1-methyl-2-oxo-1,2-dihydrobenzo[cd]indol-6-yl)cyclopropyl)benzamide]: the 50% inhibitory concentration (IC50) lay in the range of 40 to 100 nM.
